Laboratory results as given in patent publication US8178534B2, “cMET inhibitors” (Takeda Pharmaceutical Company Limited, priority 2008, dated 2012).
Counter-ions that a name gives are not always drawn.

How the values were obtained:
[1] = molecular target: T1, cMET enzyme (amino acids 1023-1360) (Homo sapiens, UniProt P08581); assay: Determination of inhibition of cMET (capillary electrophoresis, phosphorylated peptide product); format: biochemical; details: 1.2 nM cMET, 50 μM ATP, 2 μM FL-2 peptide, 2 hours room temperature
T1 construct: The cMET enzyme (amino acids 1023-1360) nominally at 24 μM was held at −80° C. until use; His tag (N, cleaved yes); made in house; host or cells: Sf9 cells
T1 sequence (P08581 1023-1360): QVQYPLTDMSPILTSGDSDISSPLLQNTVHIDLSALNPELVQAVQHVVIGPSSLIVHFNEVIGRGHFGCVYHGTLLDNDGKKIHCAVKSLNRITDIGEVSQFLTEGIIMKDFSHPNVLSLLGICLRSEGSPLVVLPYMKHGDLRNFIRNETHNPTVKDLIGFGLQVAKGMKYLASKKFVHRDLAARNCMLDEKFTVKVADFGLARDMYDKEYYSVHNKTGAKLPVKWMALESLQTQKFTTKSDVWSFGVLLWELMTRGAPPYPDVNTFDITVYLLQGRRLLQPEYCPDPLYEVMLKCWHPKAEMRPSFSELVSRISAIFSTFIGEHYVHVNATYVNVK

MKN45 = assay: Inhibition of cell viability (MTS), MKN45; format: cell-based; details: 96 hours incubation
Method in brief: (§1)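 Cells seeded at 2,000-7,500/well, attached ~24 h, then treated in duplicate with 1:2.5 serial dilutions at 0.5% final DMSO. Viability by MTS; EC50 from non-linear fit after background correction and normalisation to DMSO. MKN45 and EBC1 are cMET-dependent; A549 serves as negative control.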

EBC1 = assay: Inhibition of cell viability (MTS), EBC1; format: cell-based; details: 96 hours incubation
Method in brief: as §1

A549 = assay: Inhibition of cell viability (MTS), A549 (negative control line); format: cell-based; details: A549 cells (negative control), 96 hours incubation
Method in brief: as §1

[2] = Homo sapiens, MKN-45, 96 h, MKN45 cells
[3] = Homo sapiens, EBC-1, 96 h, EBC1 cells

SMILES	IC50 [1] [nM]	EC50 (MKN45; [2]) [nM]	EC50 (A549; Homo sapiens, A549, 96 h) [nM]	EC50 (MKN45; MKN45 cells) [nM]	EC50 (A549) [nM]	EC50 (EBC1; [3]) [nM]	EC50 (MKN45; Homo sapiens, MKN-45, MKN45 cells) [nM]	EC50 (EBC1; Homo sapiens, EBC-1, EBC1 cells) [nM]	EC50 (A549; Homo sapiens) [nM]	EC50 (EBC1; EBC1 cells) [nM]
CC(C)c1ccc2nnc(Sc3ccc4nc(NC(=O)C5CC5)cn4n3)n2c1 [Compound 26, N-(6-(6-isopropyl-[1,2,4]triazolo[4,3-a]pyridin-3-ylthio)imidazo[1,2-b]pyridazin-2-yl)cyclopropanecarboxamide]	< 30	< 100	> 19500			< 35				
CC(C)CNC(=O)c1ccc2nnc(Sc3ccc4nc(NC(=O)C5CC5)cn4n3)n2c1 [Compound 35, 3-(2-(cyclopropanecarboxamido)imidazo[1,2-b]pyridazin-6-ylthio)-N-isobutyl-[1,2,4]triazolo[4,3-a]pyridine-6-carboxamide]	> 100	> 630	> 19500			100 to 199				
CN(C)C(=O)Cn1cc(-c2ccc3nnc(Sc4ccc5nc(NC(=O)C6CC6)cn5n4)n3c2)cn1 [Compound 30, N-(6-(6-(1-(2-(dimethylamino)-2-oxoethyl)-1H-pyrazol-4-yl)-[1,2,4]triazolo[4,3-a]pyridin-3-ylthio)imidazo[1,2-b]pyridazin-2-yl)cyclopropanecarboxamide]	30 to 59	> 630	> 19500			> 200				
O=C(Nc1cn2nc(Sc3nnc4ccc(Br)cn34)ccc2n1)C1CC1 [Compound 4, N-(6-(6-bromo-[1,2,4]triazolo[4,3-a]pyridin-3-ylthio)imidazo[1,2-b]pyridazin-2-yl)cyclopropanecarboxamide]	30 to 59	100 to 249	> 50000			< 35				
N#Cc1ccc2nnc(Sc3ccc4nc(NC(=O)C5CC5)cn4n3)n2c1 [Compound 6, N-(6-(6-cyano-[1,2,4]triazolo[4,3-a]pyridin-3-ylthio)imidazo[1,2-b]pyridazin-2-yl)cyclopropanecarboxamide]	> 100						> 630	> 200	> 50000	
O=C(Nc1cn2nc(Sc3nnc4ccc(-c5cnn(CCO)c5)cn34)ccc2n1)C1CC1 [Compound 32]	< 30	100 to 249	> 50000			35 to 99				
O=C(Nc1cn2nc(Cn3nnc4ccc(-c5cnn(C[C@@H](O)CO)c5)cc43)ccc2n1)C1CC1 [Compound 23]	30 to 59	250 to 630	> 50000			100 to 199				
CNC(=O)c1ccc(-c2ccc3nnc(Sc4ccc5nc(NC(=O)C6CC6)cn5n4)n3c2)cc1Cl [Compound 28, 2-chloro-4-(3-(2-(cyclopropanecarboxamido)imidazo[1,2-b]pyridazin-6-ylthio)-[1,2,4]triazolo[4,3-a]pyridin-6-yl)-N-methylbenzamide]	< 30	< 100	> 50000			< 35				
O=C(Nc1cn2nc(Sc3nnc4ccc(-c5nn[nH]n5)cn34)ccc2n1)C1CC1 [Compound 38, N-(6-(6-(2H-tetrazol-5-yl)-[1,2,4]triazolo[4,3-a]pyridin-3-ylthio)imidazo[1,2-b]pyridazin-2-yl)cyclopropanecarboxamide]	> 100	> 630	> 50000			> 200				
Cn1cc(-c2ccc3nnn(Cc4ccc5nc(NC(=O)C6CC6)cn5n4)c3c2)cn1 [13 (TFA Salt), Cyclopropanecarboxylic acid {6-[6-(1-methyl-1H-pyrazol-4-yl)-benzotriazol-1-ylmethyl]-imidazo[1,2-b]pyridazin-2-yl}-amide]	30 to 59			60 to 100	5000 to 8000					< 30

Now from value to molecule, other results behind:

IC50 [1] [nM]	EC50 (MKN45; [2]) [nM]	EC50 (A549; Homo sapiens, A549, 96 h) [nM]	EC50 (MKN45; MKN45 cells) [nM]	EC50 (A549) [nM]	SMILES	EC50 (EBC1; [3]) [nM]	EC50 (MKN45; Homo sapiens, MKN-45, MKN45 cells) [nM]	EC50 (EBC1; Homo sapiens, EBC-1, EBC1 cells) [nM]	EC50 (A549; Homo sapiens) [nM]	EC50 (EBC1; EBC1 cells) [nM]
< 30	< 30	> 50000			O=C(Nc1cn2nc(C(F)(F)c3nnc4ccc(-c5cc(F)cc(F)c5)cn34)ccc2n1)C1CC1 [Compound 81, N-(6-((6-(3,5-difluorophenyl)-[1,2,4]triazolo[4,3-a]pyridin-3-yl)difluoromethyl)imidazo[1,2-b]pyridazin-2-yl)cyclopropanecarboxamide]	< 30				
< 30	< 30	> 50000			CC(c1ccc2nc(NC(=O)C3CC3)cn2n1)c1nnc2ccc(-c3ccc(C#N)cc3)cn12 (stereo not drawn) [Compound 63, N-(6-(1-(6-(4-cyanophenyl)-[1,2,4]triazolo[4,3-a]pyridin-3-yl)ethyl)imidazo[1,2-b]pyridazin-2-yl)cyclopropanecarboxamide]	< 30				
< 30	100 to 249	> 50000			CC(c1ccc2nc(NC(=O)C3CC3)cn2n1)c1nnc2ccc(-c3cn[nH]c3)cn12 (stereo not drawn) [Compound 64, N-(6-(1-(6-(1H-pyrazol-4-yl)-[1,2,4]triazolo[4,3-a]pyridin-3-yl)ethyl)imidazo[1,2-b]pyridazin-2-yl)cyclopropanecarboxamide]	100 to 249				
60 to 100	< 30	> 50000			O=C(Nc1cn2nc(C(F)(F)c3nnc4ccc(-c5ccncc5)cn34)ccc2n1)C1CC1 [Compound 79, N-(6-(difluoro(6-(pyridin-4-yl)-[1,2,4]triazolo[4,3-a]pyridin-3-yl)methyl)imidazo[1,2-b]pyridazin-2-yl)cyclopropanecarboxamide]	< 30				
> 100	> 100	> 50000			C[C@H](c1ccc2nc(NC(=O)C3CC3)cn2n1)c1nnc2ccc(-c3cnn(C)c3)cn12 [Compound 51, (R)—N-(6-(1-(6-(1-methyl-1H-pyrazol-4-yl)-[1,2,4]triazolo[4,3-a]pyridin-3-yl)ethyl)imidazo[1,2-b]pyridazin-2-yl)cyclopropanecarboxamide]	> 100				
< 30	< 30	> 50000			O=C(Nc1cn2nc(C(F)(F)c3nnc4ccc(-c5cccc(F)c5)cn34)ccc2n1)C1CC1 [Compound 77, N-(6-(difluoro(6-(3-fluorophenyl)-[1,2,4]triazolo[4,3-a]pyridin-3-yl)methyl)imidazo[1,2-b]pyridazin-2-yl)cyclopropanecarboxamide]	< 30				
< 30	< 30	> 50000			N#Cc1cccc(-c2ccc3nnc(C(F)(F)c4ccc5nc(NC(=O)C6CC6)cn5n4)n3c2)c1 [Compound 82, N-(6-((6-(3-cyanophenyl)-[1,2,4]triazolo[4,3-a]pyridin-3-yl)difluoromethyl)imidazo[1,2-b]pyridazin-2-yl)cyclopropanecarboxamide]	< 30				
< 30	< 30	> 50000			CS(=O)(=O)c1cccc(-c2ccc3nnc(C(F)(F)c4ccc5nc(NC(=O)C6CC6)cn5n4)n3c2)c1 [Compound 88, N-(6-(difluoro(6-(3-(methylsulfonyl)phenyl)-[1,2,4]triazolo[4,3-a]pyridin-3-yl)methyl)imidazo[1,2-b]pyridazin-2-yl)cyclopropanecarboxamide]	< 30				
< 30	< 30	8000 to 25000			CN(C)c1cccc(-c2ccc3nnc(C(F)(F)c4ccc5nc(NC(=O)C6CC6)cn5n4)n3c2)c1 [Compound 96, N-(6-((6-(3-(dimethylamino)phenyl)-[1,2,4]triazolo[4,3-a]pyridin-3-yl)difluoromethyl)imidazo[1,2-b]pyridazin-2-yl)cyclopropanecarboxamide]	< 30				
< 30	100 to 249	> 50000			CC(c1ccc2nc(NC(=O)C3CC3)cn2n1)c1nnc2ccc(-c3cccc(C(N)=O)c3)cn12 (stereo not drawn) [Compound 66, 3-(3-(1-(2-(cyclopropanecarboxamido)imidazo[1,2-b]pyridazin-6-yl)ethyl)-[1,2,4]triazolo[4,3-a]pyridin-6-yl)benzamide]	100 to 249				
60 to 100	100 to 249	> 50000			Cc1ccc2nnc(Sc3ccc4nc(NC(=O)C5CC5)cn4n3)n2c1 [Compound 42, N-(6-(6-methyl-[1,2,4]triazolo[4,3-a]pyridin-3-ylthio)imidazo[1,2-b]pyridazin-2-yl)cyclopropanecarboxamide]	35 to 99				
< 30	100 to 249	8000 to 25000			O=C(Nc1cn2nc(Sc3nnc4ccc(-c5cccc(CCCO)c5)cn34)ccc2n1)C1CC1 [Compound 111, N-(6-(6-(3-(3-hydroxypropyl)phenyl)-[1,2,4]triazolo[4,3-a]pyridin-3-ylthio)imidazo[1,2-b]pyridazin-2-yl)cyclopropanecarboxamide]	30 to 59				
< 30	100 to 249	> 50000			CC(c1ccc2nc(NC(=O)C3CC3)cn2n1)c1nnc2ccc(-c3ccc(C(N)=O)cc3)cn12 (stereo not drawn) [Compound 67, 4-(3-(1-(2-(cyclopropanecarboxamido)imidazo[1,2-b]pyridazin-6-yl)ethyl)-[1,2,4]triazolo[4,3-a]pyridin-6-yl)benzamide]	60 to 100				
30 to 59	8000 to 25000	> 50000			N#Cc1cc(-c2ccc3nnc(Sc4ccc5nc(NC(=O)C6CC6)cn5n4)n3c2)cnc1O [Compound 108, N-(6-(6-(5-cyano-6-hydroxypyridin-3-yl)-[1,2,4]triazolo[4,3-a]pyridin-3-ylthio)imidazo[1,2-b]pyridazin-2-yl)cyclopropanecarboxamide]	8000 to 25000				
